Drawing on US20110172244A1 (IRM LLC, priority 2008, published 2011), this text covers EC50 for 24 molecules.

For this assay, the target named is T1, human GPR119 (Homo sapiens, UniProt Q8TDV5).
T1 construct: expressed in transfected cells
T1 sequence (Q8TDV5 1-335): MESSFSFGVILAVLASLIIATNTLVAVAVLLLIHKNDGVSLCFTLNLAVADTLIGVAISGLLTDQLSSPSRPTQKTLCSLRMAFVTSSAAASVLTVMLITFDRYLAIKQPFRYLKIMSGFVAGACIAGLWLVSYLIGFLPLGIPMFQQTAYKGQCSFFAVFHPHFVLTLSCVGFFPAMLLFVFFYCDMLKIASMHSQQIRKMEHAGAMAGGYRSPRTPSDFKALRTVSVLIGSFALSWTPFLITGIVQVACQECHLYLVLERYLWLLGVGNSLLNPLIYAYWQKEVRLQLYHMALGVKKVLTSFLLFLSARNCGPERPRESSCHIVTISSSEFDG
The experiment in a line: Cyclic AMP assay in stable cell line (Flp-In-CHO-hGPR119, HTRF). It is filed as cell-based. The settings on record: Flp-In-CHO-hGPR119 cells, cAMP HTRF, 1 mM IBMX, 30 minutes at 37° C.; read-out: CHO-GPR119-HTRF (3158) EC50. Here is the method:
Generation of Stable Cell Line
Flp-In-CHO cells (Invitrogen, Cat. #R758-07) are maintained in Ham's F12 medium supplemented with 10% fetal bovine serum, 1% antibiotic mixture and 2 mM L-glutamine. The cells are transfected with a DNA mixture containing human GPR119 in pcDNA5/FRT vector and the pOG44 vector (1:9) using Fugene6 (Roche), according to the manufacturer's instruction. After 48 hours, the medium is changed to medium supplemented with 400 μg/ml hygromycin B to initiate the selection of stably transfected cells.
Cyclic AMP Assay in Stable Cell Line
To test the activity of compounds of the invention, Flp-In-CHO-hGPR119 cells are harvested and resuspended in DMEM plus 3% lipid-depleted fetal bovine serum. Forth μl of cells are plated in 384 well plates at a density of 15,000 cells/well. IBMX (3-isobutyl-1-methyl-xanthine) is added to the cells to a final concentration of 1 mM, followed by the addition of 500 nl of the compound to be tested. The cells are incubated at 37° C. for 30 minutes. Equal volume (20 μl) of the HTRF reagents, anti-cAMP-Cryptate and cAMP-XL665, are added to the cells. The plates are incubated at room temperature for 1 hour and read on a HTRF reader according to the manufacturer's instruction.
In general, EC50 refers to the concentration that produces a half-maximal response. In the case of `O=C(c1[nH]c2ccc(F)cc2c1S(=O)(=O)c1ccc(Cl)cc1)N1CCC(Cc2ccccc2)CC1` [Example A1, (4-benzylpiperidin-1-yl)(3-(4-chlorophenylsulfonyl)-5-fluoro-1H-indol-2-yl)methanone], the EC50 was 12 nM.

For the molecule `O=C(c1[nH]c2ccccc2c1S(=O)(=O)c1ccc(Cl)cc1)N1CCN(Cc2c(F)cccc2Cl)CC1` [Example A2, (4-(2-chloro-6-fluorobenzyl)piperazin-1-yl)(3-(4-chlorophenylsulfonyl)-1H-indol-2-yl)methanone], the EC50 worked out at 7 nM.

Regarding `Cc1ccc(OC2CCN(C(=O)c3[nH]c4ccccc4c3S(=O)(=O)c3ccc(Cl)cc3)CC2)cc1` [Example A3, (3-(4-chlorophenylsulfonyl)-1H-indol-2-yl)(4-(p-tolyloxy)piperidin-1-yl)methanone], the concentration giving a half-maximal response (EC50) was 9 nM.

As to `O=C(c1[nH]c2ccccc2c1S(=O)(=O)c1ccc(Cl)cc1)N1CCC(Oc2ccc(C(F)(F)F)cc2)CC1` [Example A4, (3-(4-chlorophenylsulfonyl)-1H-indol-2-yl)(4-(4-(trifluoromethyl)phenoxy)piperidin-1-yl)methanone], the EC50 came out at 10 nM.

With `O=C(c1[nH]c2ccccc2c1S(=O)(=O)c1ccc(Cl)cc1)N1CCN(Cc2ccc(Cl)cc2)CC1` [Example A5, (4-(4-chlorobenzyl)piperazin-1-yl)(3-(4-chlorophenylsulfonyl)-1H-indol-2-yl)methanone], the EC50 amounted to 17 nM.

As to `Cc1ccc(SC2CCN(C(=O)c3[nH]c4ccccc4c3S(=O)(=O)c3ccc(Cl)cc3)CC2)cc1` [Example A6, (3-(4-chlorophenylsulfonyl)-1H-indol-2-yl)(4-(p-tolylthio)piperidin-1-yl)methanone], the EC50 is 18 nM.

For the molecule `O=C(c1[nH]c2ccccc2c1S(=O)(=O)c1ccc(Cl)cc1)N1CCC(CCc2ccccc2)CC1` [Example A7, (3-(4-chlorophenylsulfonyl)-1H-indol-2-yl)(4-phenethylpiperidin-1-yl)methanone], the EC50 is 18 nM.

With `O=C(c1[nH]c2ccccc2c1S(=O)(=O)c1ccc(Cl)cc1)N1CCN(CC2CCCCC2)CC1` [Example A11, (3-(4-chlorophenylsulfonyl)-1H-indol-2-yl)(4-(cyclohexylmethyl)piperazin-1-yl)methanone], the EC50 came out at 32 nM.

Turning to `O=C(c1[nH]c2ccccc2c1S(=O)(=O)c1ccc(Cl)cc1)N1CCN(Cc2ccc3c(c2)OCO3)CC1` [Example A12, (4-(benzo[d][1,3]dioxol-5-ylmethyl)piperazin-1-yl)(3-(4-chlorophenylsulfonyl)-1H-indol-2-yl)methanone], the concentration giving a half-maximal response (EC50) is 40 nM.

Take `CN(Cc1ccccc1)C1CCN(C(=O)c2[nH]c3ccccc3c2S(=O)(=O)c2ccc(Cl)cc2)CC1` [Example A19, (4-(benzyl(methyl)amino)piperidin-1-yl)(3-(4-chlorophenylsulfonyl)-1H-indol-2-yl)methanone]: the EC50 was 533 nM.

For `CN(CCOc1ccccc1)C(=O)c1[nH]c2ccccc2c1S(=O)(=O)c1ccc(Cl)cc1` [Example A20, 3-(4-chlorophenylsulfonyl)-N-methyl-N-(2-phenoxyethyl)-1H-indole-2-carboxamide], the concentration giving a half-maximal response (EC50) was 192 nM.

On to `O=C(c1[nH]c2ccccc2c1S(=O)(=O)c1ccc(Cl)cc1)N1CCN(Cc2ccncc2)CC1` [Example A22, (3-(4-chlorophenylsulfonyl)-1H-indol-2-yl)(4-(pyridin-4-ylmethyl)piperazin-1-yl)methanone], for which the EC50 amounted to 435 nM.

Consider `O=C(NCCCCc1ccccc1)c1[nH]c2ccccc2c1S(=O)(=O)c1ccc(Cl)cc1` [Example A23, 3-(4-chlorophenylsulfonyl)-N-(4-phenylbutyl)-1H-indole-2-carboxamide], for which the EC50 was determined as 396 nM.

Consider `O=C(c1[nH]c2ccccc2c1S(=O)(=O)c1ccc(Cl)cc1)N1CCCCC1` [Example A24, (3-(4-chlorophenylsulfonyl)-1H-indol-2-yl)(piperidin-1-yl)methanone], for which the EC50 amounted to 574 nM.

For the molecule `O=C(c1oc2ccccc2c1S(=O)(=O)c1ccc(Cl)cc1)N1CCC(Oc2ccc(C(F)(F)F)cc2)CC1` [Example A29, (3-(4-Chlorophenylsulfonyl)benzofuran-2-yl)(4-(4-(trifluoromethyl)phenoxy)piperidin-1-yl)methanone], the EC50 was 54 nM.

For `O=C(c1oc2ccccc2c1S(=O)(=O)c1ccc(Cl)cc1)N1CCN(Cc2ccccc2)CC1` [Example A30, (4-benzylpiperazin-1-yl)(3-(4-chlorophenylsulfonyl)benzofuran-2-yl)methanone], the EC50 was 187 nM.

With `O=C(c1[nH]c2c(F)cccc2c1S(=O)(=O)c1ccc(Cl)cc1)N1CCC(Cc2ccccc2)CC1` [Example B1, (4-benzylpiperidin-1-yl)(3-(4-chlorophenylsulfonyl)-7-fluoro-1H-indol-2-yl)methanone], the half-maximal effective concentration (EC50) amounted to 22 nM.

`O=C(c1[nH]c2ccccc2c1S(=O)(=O)Cc1ccccc1)N1CCC(Cc2ccccc2)CC1` [Example B2, (4-benzylpiperidin-1-yl)(3-benzylsulfonyl-1H-indol-2-yl)methanone]: the EC50 turned out to be 210 nM.

With `O=C(c1[nH]c2ccccc2c1SC1CCCCC1)N1CCC(Cc2ccccc2)CC1` [Example B3, (4-benzylpiperidin-1-yl)(3-(cyclohexylthio)-1H-indol-2-yl)methanone], the half-maximal effective concentration (EC50) was determined as 755 nM.

With `O=C(c1[nH]c2ccccc2c1S(=O)(=O)C1CCCCC1)N1CCC(Cc2ccccc2)CC1` [Example B4], the EC50 amounted to 149 nM.

Consider `Cn1c(C(=O)N2CCC(Cc3ccccc3)CC2)c(S(=O)(=O)c2ccc(Cl)cc2)c2ccccc21` [Example B5, (4-Benzylpiperidin-1-yl)(3-(4-chlorophenylsulfonyl)-1-methyl-1H-indol-2-yl)methanone], for which the EC50 was determined as 169 nM.

As for `O=C(c1[nH]c2ccccc2c1S(=O)(=O)CCc1ccccc1)N1CCC(Cc2ccccc2)CC1` [Example B11, (4-benzylpiperidin-1-yl)(3-(phenethylsulfonyl)-1H-indol-2-yl)methanone], the 50% effective concentration (EC50) was 42 nM.

For `O=C(c1[nH]c2ccccc2c1Sc1ccccc1)N1CCC(Cc2ccccc2)CC1` [Example C1, (4-Benzylpiperidin-1-yl)(3-(phenylthio)-1H-indol-2-yl)methanone], the EC50 worked out at 454 nM.

Take `O=C(c1[nH]c2ccccc2c1Sc1ccc(Cl)cc1)N1CCC(Cc2ccccc2)CC1` [Example C2, (4-benzylpiperidin-1-yl)(3-(4-chlorophenylthio)-1H-indol-2-yl)methanone]: the EC50 turned out to be 180 nM.
